According to paper PMC8645336, “Benchmarking a highly selective USP30 inhibitor for enhancement of mitophagy and pexophagy” (Life Science Alliance, 2021):

Legend:
Experiment in all cases: biochemical
Parameters in all cases: Ubiquigent DUB profiler selectivity panel, remaining enzyme activity as % of control
Conditions in all cases: read-out: % of control remaining
[1] = target: JOSD1 (Homo sapiens, UniProt Q15040)
Procedure, shortened: (§1)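 In YFP-PRKN-overexpressing hTERT-RPE1 cells, 1 h antimycin A plus oligomycin A (1 μM each) with CMPD-39, then Western blot of TOMM20 ubiquitylation. Target engagement: 2 h compound, then 10 min HA-Ub-PA at 37°C, read as USP30 shift. DUB panel (>40 enzymes) screened at 1-100 μM.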

[2] = target: T1, AMSH-LP (Homo sapiens, UniProt Q96FJ0)
T1 construct: gene STAMBPL1
T1 sequence (Q96FJ0 1-436): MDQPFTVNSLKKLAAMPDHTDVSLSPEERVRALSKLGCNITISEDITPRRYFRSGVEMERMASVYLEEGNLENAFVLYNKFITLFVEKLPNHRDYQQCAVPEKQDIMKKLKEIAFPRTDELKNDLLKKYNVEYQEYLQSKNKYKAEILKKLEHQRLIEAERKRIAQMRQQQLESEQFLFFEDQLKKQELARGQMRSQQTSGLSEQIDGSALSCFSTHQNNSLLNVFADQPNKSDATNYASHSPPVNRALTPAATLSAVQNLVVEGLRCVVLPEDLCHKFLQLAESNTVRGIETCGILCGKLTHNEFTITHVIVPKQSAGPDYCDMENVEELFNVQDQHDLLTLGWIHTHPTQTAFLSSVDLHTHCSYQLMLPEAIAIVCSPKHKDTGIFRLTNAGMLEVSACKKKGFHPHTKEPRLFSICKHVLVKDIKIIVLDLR
Procedure, shortened: as §1

[3] = target: T2, Ataxin3L (Homo sapiens, UniProt Q9H3M9)
T2 construct: gene ATXN3L
T2 sequence (Q9H3M9 1-355): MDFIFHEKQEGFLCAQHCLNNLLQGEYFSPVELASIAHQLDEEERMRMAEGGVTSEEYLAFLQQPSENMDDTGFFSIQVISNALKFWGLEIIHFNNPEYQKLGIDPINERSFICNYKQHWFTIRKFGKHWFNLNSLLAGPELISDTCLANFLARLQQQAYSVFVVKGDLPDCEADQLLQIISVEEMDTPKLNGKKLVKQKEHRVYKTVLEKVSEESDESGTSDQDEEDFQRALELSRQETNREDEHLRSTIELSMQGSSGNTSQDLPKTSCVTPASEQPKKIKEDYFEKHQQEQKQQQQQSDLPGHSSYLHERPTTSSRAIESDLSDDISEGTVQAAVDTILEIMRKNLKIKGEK
Procedure, shortened: as §1

[4] = target: T3, USP35** (Homo sapiens, UniProt Q9P2H5)
T3 sequence (Q9P2H5 1-1018): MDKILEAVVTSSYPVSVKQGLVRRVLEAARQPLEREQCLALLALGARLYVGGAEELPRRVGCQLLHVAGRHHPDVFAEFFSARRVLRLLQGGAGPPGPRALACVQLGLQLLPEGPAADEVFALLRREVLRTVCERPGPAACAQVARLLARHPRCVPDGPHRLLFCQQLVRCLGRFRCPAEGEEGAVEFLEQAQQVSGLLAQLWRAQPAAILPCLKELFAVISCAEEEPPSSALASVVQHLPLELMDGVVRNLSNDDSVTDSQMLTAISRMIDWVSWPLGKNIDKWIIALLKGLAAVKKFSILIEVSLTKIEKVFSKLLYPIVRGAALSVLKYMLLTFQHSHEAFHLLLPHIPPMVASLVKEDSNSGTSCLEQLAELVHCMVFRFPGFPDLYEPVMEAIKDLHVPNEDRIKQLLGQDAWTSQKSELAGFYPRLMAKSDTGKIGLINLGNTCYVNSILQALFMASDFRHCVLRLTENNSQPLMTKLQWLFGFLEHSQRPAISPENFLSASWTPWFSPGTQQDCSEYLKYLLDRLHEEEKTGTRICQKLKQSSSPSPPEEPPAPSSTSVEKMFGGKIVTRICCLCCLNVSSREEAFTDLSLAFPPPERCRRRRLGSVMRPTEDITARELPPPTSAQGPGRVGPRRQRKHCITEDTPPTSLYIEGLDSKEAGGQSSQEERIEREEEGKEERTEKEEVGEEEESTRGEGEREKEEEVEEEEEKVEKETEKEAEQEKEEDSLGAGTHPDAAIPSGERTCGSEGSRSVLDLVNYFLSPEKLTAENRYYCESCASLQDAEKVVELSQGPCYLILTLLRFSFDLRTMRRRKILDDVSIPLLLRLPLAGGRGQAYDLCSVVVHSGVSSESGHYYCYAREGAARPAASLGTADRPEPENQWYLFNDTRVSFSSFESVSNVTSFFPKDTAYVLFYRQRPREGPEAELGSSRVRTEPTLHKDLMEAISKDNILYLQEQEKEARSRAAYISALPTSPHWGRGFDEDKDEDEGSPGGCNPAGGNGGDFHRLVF
Procedure, shortened: as §1

remaining activity at 1 µM [1]: 98.1% | remaining activity at 10 µM [1]: 99.6% | remaining activity at 100 µM [1]: 103% | remaining activity at 1 µM [2]: 109% | remaining activity at 10 µM [2]: 102% | remaining activity at 100 µM [2]: 112% | remaining activity at 1 µM [4]: 113% | remaining activity at 10 µM [4]: 101% | remaining activity at 100 µM [4]: 102%
SMILES: CC(C)(C)NS(=O)(=O)c1ccc(NC(=O)[C@H](Cc2ccccc2)NC(=O)c2ccc(F)cc2)cc1 [compound 39, CMPD-39]
remaining activity at 1 µM [3]: 103% | remaining activity at 10 µM [3]: 101% | remaining activity at 100 µM [3]: 102%
